pIC50: −log10 of the molar value.
Tested on: spiral strips of rabbit aorta
Assay: Reduction of calcium-induced contraction of K+-depolarised rabbit aorta spiral strips
Format: cell-based
Conditions: for pIC50: Oryctolagus cuniculus, molar concentration required to reduce the contractile response by 50%, 35 mM potassium, 2 mM calcium ion
Protocol: The test is performed by mounting spiral strips of rabbit aorta with one end fixed and the other attached to a force transducer. The mounted tissue is immersed in a physiological salt solution containing potassium ion at a concentration of 35 millimole and no calcium. Calcium chloride is added to the bath to give a final calcium ion concentration of 2 millimole. The change in tension caused by the resulting contraction of the tissue is noted. The bath is drained and replaced with fresh salt solution and, 45 minutes later the test is repeated with the addition of the compound being tested in the presence of salt solution and, […] The concentration of compound required to reduce the response by 50% is recorded. The anti-hypertensive activity of the compounds is also evaluated oral administration by measuring the decrease fall in blood pressure in spontaneously hypertensive rats.

| SMILES | pIC50 | activity ranking in words (the smaller the concentration, the more active) (ranking by IC50 in Table 1) |
| --- | --- | --- |
| COC(=O)C1=C(C)NC(C)=C(C(=O)OCSC)C1c1cccc([N+](=O)[O-])c1 (stereo not drawn) [Example 1, 2,6-dimethyl-4-(3'-nitrophenyl)-1,4-dihydropyridine-3,5-dicarboxylic acid 3-methylthiomethyl ester 5-methyl ester] | 8.40 | most active compound |
| CCOC(=O)C1=C(C)NC(C)=C(C(=O)OCSC)C1c1cccc([N+](=O)[O-])c1 (stereo not drawn) [Example 2] | 7.70 |  |
| CSCOC(=O)C1=C(C)NC(C)=C(C(=O)OC(C)C)C1c1cccc([N+](=O)[O-])c1 (stereo not drawn) [Example 3] | 7.25 |  |
| CCSCOC(=O)C1=C(C)NC(C)=C(C(=O)OC)C1c1cccc([N+](=O)[O-])c1 (stereo not drawn) [Example 4] | 7.77 |  |
| COC(=O)C1=C(C)NC(C)=C(C(=O)OCSC)C1c1ccccc1C(F)(F)F (stereo not drawn) [Example 6] | 7.72 |  |
| COCOC(=O)C1=C(C)NC(C)=C(C(=O)OC)C1c1cccc([N+](=O)[O-])c1 (stereo not drawn) [Example 7] | 7.38 |  |
| COCOC(=O)C1=C(C)NC(C)=C(C(=O)OC(C)C)C1c1cccc([N+](=O)[O-])c1 (stereo not drawn) [Example 8] | 7.59 |  |
| COC(=O)C1=C(C)NC(C)=C(C(=O)OCSC)C1c1cccc2nonc12 (stereo not drawn) [Example 11] | 7.10 |  |
| COC(=O)C1=C(C)NC(C)=C(C(=O)OCSC)C1c1ccccc1[N+](=O)[O-] (stereo not drawn) [Example 12] | 7.96 |  |

The remaining compounds from weak to strong by pIC50, led by results:

| pIC50 | SMILES | activity ranking in words (the smaller the concentration, the more active) (ranking by IC50 in Table 1) |
| --- | --- | --- |
| 6.85 | COC(=O)C1=C(C)NC(C)=C(C(=O)OCSc2ccccc2)C1c1cccc([N+](=O)[O-])c1 (stereo not drawn) [Example 13, 2,6-dimethyl-4-(3-nitrophenyl)-1,4-dihydropyridine-3,5-dicarboxylic acid 3-phenylthiomethyl, 5-methylester] |  |
| 7.46 | COC(=O)C1=C(C)NC(C)=C(C(=O)OCCN(C)Cc2ccccc2)C1c1cccc([N+](=O)[O-])c1 (stereo not drawn) [control, Nicardipine, reference compound] |  |
| 7.54 | COC(=O)C1=C(C)NC(C)=C(C(=O)OCSC)C1c1cccc(Cl)c1Cl (stereo not drawn) [Example 5] |  |
| 7.54 | CCOCOC(=O)C1=C(C)NC(C)=C(C(=O)OC)C1c1cccc([N+](=O)[O-])c1 (stereo not drawn) [Example 9] |  |
| 7.70 | COCOC(=O)C1=C(C)NC(C)=C(C(=O)OC)C1c1cccc(Cl)c1Cl (stereo not drawn) [Example 10] |  |

— patent publication US5089624A, “Dihydropyridine derivatives” (Yuhan Corporation, priority 1988, dated 1992)
